Experimental data published in publication PMC12592420, “A mismatch in enzyme-redox partnerships underlies divergent cytochrome P450 activities between human hepatocytes and microsomes” (Communications Biology, 2025).
Several values for one entry are separate records, joined by “and”; a condition that tells them apart may be missing. Identical values can stand only once. Values belong to the molecule of their own block, whether it stands above or below them.

Tests used:
[1] = healthy volunteers, cited from earlier work
[2] = Incubations in human liver S9 + NADPH (same donor pool as HLM); type: in vitro ADME; conditions: S9 + NADPH, savolitinib 1 µM, 1 h (Fig. 6aii)
[3] = Incubations in HLM + NADPH from the same donor pool as S9; type: in vitro ADME, human; conditions: HLM (same donors as S9) + NADPH, savolitinib 1 µM, 1 h (Fig. 6aii)
Excerpt: Liver S9 (lot 1810001, pool of 50, Xenotech) and HLM (pool of 50, lot 1810003, Xenotech) from the same pool of donors were purchased from Xenotech.

[4] = test system: human hepatocytes (HH); assay: Savolitinib metabolite (M2, M4) formation in human hepatocytes, with and without CYP inhibitors; type: in vitro ADME; conditions: savolitinib 5 µM, 1 h, only peak above this level
[5] = Savolitinib metabolite (M2, M4) formation in NADPH-HLM (with BSA or cytosol where stated); type: in vitro ADME, human; design: [M4] / M2 average / M4 average: unit not given here; conditions: for M2 average: average of duplicate (Suppl. Fig. 1); for [M2]: savolitinib 1 µM
[6] = test system: human hepatocytes (HH); assay: Savolitinib metabolite (M2, M4) formation in human hepatocytes, with and without CYP inhibitors; type: in vitro ADME; conditions: savolitinib 1 µM, intact HH
Method: […]120millioncells/[…] […] Authentic standards (M2 and M4) were spiked into hepatocytes (at 1 million cells/mL) and used to construct standard curves. Control marker reactions (final 1 μM for each compound) specific for CYP1A2 (phenacetin to form paracetamol), CYP2C19 (S-mephenytoin to form 4-OH mephenytoin) and CYP2D6 (dextromethorphan to form dextrorphan) were incubated in the presence and absence of the specific inhibitors to confirm the expected enzyme inhibition. […] After a pre-incubation at 37 °C for 5 min, the reaction was started by adding the test compound. […] After centrifugation at 3000 × g for 10 min, 200 μL of the supernatant was mixed with 400 μL of water before analysis for metabolites.

[7] = Metabolism of savolitinib in lysed hepatocytes + NADPH; type: in vitro ADME, human; conditions: savolitinib 1 µM, HH lysate + NADPH
Method: HH in Leibovitz buffer were centrifuged at 11,250 × g for 5 min to pellet the cells. Taking care not to disturb the pellet, all the media was removed using a pipette. Ice-cold water was added and the mixture vortex-mixed to resuspend the cells and stored at −80 °C for 5 min followed by sonication for 10 min to lyse the cells. The resuspended lysate final volume was equivalent to a final cell concentration of 1 million cells/mL (the same concentration used for intact cells experiments) in […] phosphate buffer pH 7.4 and NADPH (final 1 mM). After pre-incubating for 5 min at 37 °C, the reaction (metabolism of savolitinib) in the lysate was initiated by adding savolitinib (final 1 µM). […] Authentic standards (M2 and M4) were spiked into hepatocyte lysate and used to construct standard curves. The acetonitrile/hepatocyte lysate mixtures were centrifuged at 3000 × g for 10 min and 50 µl of the supernatant was mixed with 300 µl of water and 3 µL was injected into the mass spectrometer for analysis by multiple reaction monitoring.

[8] = cited from earlier work
[9] = Intrinsic permeability in Caco-2 cells with efflux inhibited; conditions: human, Caco-2
[10] = target: T1, recombinant CYP3A4-POR (Homo sapiens, UniProt P08684); assay: Savolitinib incubation with recombinant CYP3A4-POR Supersomes; type: in vitro ADME; conditions: CYP3A4-POR 100 pmol/mL, 1 µM, 1 h (Fig. 2b)
T1 construct: purchased 456202
Method: For detailed comparisons between recombinant CYP1A2 and CYP3A4 (Fig. 2B, C), Supersomes were used (CYP1A2, catalogue number 456203, CYP3A4, catalogue number 456202). […] The concentration of savolitinib metabolites M2 and M4 formed were determined from standard curves obtained by spiking the appropriate concentrations of M2 and M4 into recombinant enzymes (in the absence of NADPH) and processing in the same way as the samples.

[11] = CLint in NADPH-supplemented human liver microsomes; conditions: human; for CLint scaled at 1 µM: pH 7.4, NADPH_HLM_scaled_CLint,u
Method: (§1) Calculation and scaling of CLint,u was done using the equation below and 45 mg of microsomal protein per gram of liver. HLMCLint,u=ln2/x1/t1/2(min)xmLincubation/mgmicrosomalproteinx45mgmicrosomalprotein/gliverx21gliver/kg/Fuinc

[12] = test system: rat hepatocytes; assay: Free fraction in rat hepatocytes as surrogate for HH, equilibrium dialysis; type: in vitro ADME; conditions: fraction unbound, measured or estimated by in silico models of Fuinc
[13] = as above; type: in vitro ADME; conditions: rat hepatocytes (surrogate for human hepatocytes); printed as HH; rat hepatocytes used as surrogate
[14] = target: T2, recombinant human CYP2A6 (Homo sapiens, UniProt P11509); assay: Recombinant CYP panel, savolitinib CLint; type: in vitro ADME
T2 sequence (P11509 1-494): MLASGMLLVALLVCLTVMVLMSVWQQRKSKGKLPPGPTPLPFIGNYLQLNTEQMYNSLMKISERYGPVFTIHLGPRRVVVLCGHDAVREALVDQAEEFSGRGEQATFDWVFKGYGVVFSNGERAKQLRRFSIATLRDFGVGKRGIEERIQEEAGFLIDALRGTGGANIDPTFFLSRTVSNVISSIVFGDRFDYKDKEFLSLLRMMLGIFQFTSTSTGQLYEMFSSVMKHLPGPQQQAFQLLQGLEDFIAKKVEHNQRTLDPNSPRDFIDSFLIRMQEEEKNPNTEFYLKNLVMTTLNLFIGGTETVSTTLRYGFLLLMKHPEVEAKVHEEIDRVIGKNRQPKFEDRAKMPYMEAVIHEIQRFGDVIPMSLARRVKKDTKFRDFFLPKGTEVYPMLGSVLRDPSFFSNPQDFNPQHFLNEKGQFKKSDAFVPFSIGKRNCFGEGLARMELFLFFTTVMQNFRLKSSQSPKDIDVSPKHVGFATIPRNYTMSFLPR
Method: (§2) […]
(§3) The clearance of savolitinib was
(§4) The average intrinsic clearance was
(§5) concentrations (final 0.1 µM).

[15] = target: recombinant human CYP3A4 (Homo sapiens, UniProt P08684); assay: Recombinant CYP panel, savolitinib CLint; type: in vitro ADME
Method: as §2, §3, §4, §5

[16] = target: recombinant human CYP2D6 (Homo sapiens, UniProt P10635); assay: Recombinant CYP panel, savolitinib CLint; type: in vitro ADME
Method: as §2, §3, §4, §5

[17] = target: recombinant human CYP3A5 (Homo sapiens, UniProt P20815); assay: Recombinant CYP panel, savolitinib CLint; type: in vitro ADME
Method: as §2, §3, §4, §5

[18] = target: T3, recombinant human CYP1A2 (Homo sapiens, UniProt P05177); assay: Recombinant CYP panel, savolitinib CLint; type: in vitro ADME
T3 sequence (P05177 1-516): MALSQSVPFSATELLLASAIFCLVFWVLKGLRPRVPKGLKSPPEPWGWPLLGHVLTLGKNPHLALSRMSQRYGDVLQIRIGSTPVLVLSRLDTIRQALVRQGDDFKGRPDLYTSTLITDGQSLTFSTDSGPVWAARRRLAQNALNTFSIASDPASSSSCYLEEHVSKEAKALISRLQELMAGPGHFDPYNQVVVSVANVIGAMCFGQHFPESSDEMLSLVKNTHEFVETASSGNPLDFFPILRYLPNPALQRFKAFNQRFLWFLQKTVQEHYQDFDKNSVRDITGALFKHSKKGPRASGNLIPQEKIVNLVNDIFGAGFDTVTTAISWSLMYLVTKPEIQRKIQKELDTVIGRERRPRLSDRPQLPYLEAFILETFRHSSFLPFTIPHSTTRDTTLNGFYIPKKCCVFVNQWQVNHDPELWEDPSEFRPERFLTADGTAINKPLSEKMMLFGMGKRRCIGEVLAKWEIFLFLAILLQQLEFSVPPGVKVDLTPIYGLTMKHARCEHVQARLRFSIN
Method: as §2, §3, §4, §5

[19] = target: recombinant human CYP2C19 (Homo sapiens, UniProt P33261); assay: Recombinant CYP panel, savolitinib CLint; type: in vitro ADME; conditions: CYP2C19, inter-system extrapolation factors
Method: as §2, §3, §4, §5

[20] = Free fraction in HLM incubation, equilibrium dialysis; type: in vitro ADME, human; conditions: for fu_HLM: fraction unbound, measured or estimated by in silico models of Fuinc
[21] = Free savolitinib in incubation with 150 mg/mL bovine serum albumin; type: in vitro ADME; conditions: BSA final 150 mg/mL
[22] = LogD pH 7.4, octanol/phosphate buffer; conditions: octanol/phosphate buffer, pH 7.4
[23] = CLint in NADH-supplemented human liver microsomes; conditions: human, pH 7.4
Method: as §1

[24] = in vitro; conditions: human, hepatocytes; for hepatocyte CLint at 1 µM: both; for CLint scaled at 1 µM: HH_scaled_CLint,u
[25] = target: T4, CYP1A2-Cytb5R (Homo sapiens, UniProt P05177); assay: Turnover by non-canonical recombinant CYP1A2-Cytb5R; type: in vitro ADME; conditions: noncanonical CYP1A2-Cytb5R
T4 construct: purchased BioIVT (custom synthesis) CE00001 (CYP1A2), batch CPD034-1A2-30; host or cells: bactosomes
T4 sequence (P05177 1-516): T3 sequence (P05177 1-516)
Excerpt: As commercial recombinant human CYPs co-express the individual CYP and reductase with an option to include cytochrome b5. A custom synthesis co-expressing CYP3A4 or CYP1A2 and Cytb5R plus cytochrome b5 was, therefore, ordered from BioIVT and the bactosomes were compared with canonical CYP-POR enzymes plus cytochrome b5.

[26] = physchem; conditions: pH 7.4

T1 sequence (P08684 whole entry): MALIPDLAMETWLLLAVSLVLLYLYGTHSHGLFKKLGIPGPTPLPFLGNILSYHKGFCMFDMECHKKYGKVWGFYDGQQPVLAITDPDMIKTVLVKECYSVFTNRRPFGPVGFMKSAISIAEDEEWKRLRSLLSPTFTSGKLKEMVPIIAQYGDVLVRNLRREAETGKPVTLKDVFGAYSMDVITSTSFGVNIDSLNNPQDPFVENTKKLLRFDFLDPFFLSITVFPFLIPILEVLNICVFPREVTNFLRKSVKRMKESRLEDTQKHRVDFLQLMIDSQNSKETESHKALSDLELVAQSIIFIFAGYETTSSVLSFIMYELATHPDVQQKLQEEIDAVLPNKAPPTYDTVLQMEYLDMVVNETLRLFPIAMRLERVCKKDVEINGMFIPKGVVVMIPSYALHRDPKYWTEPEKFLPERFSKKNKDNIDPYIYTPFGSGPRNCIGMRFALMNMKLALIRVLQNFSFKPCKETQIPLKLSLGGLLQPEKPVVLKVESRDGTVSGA
Sequence of recombinant human CYP3A5 (P20815 whole entry): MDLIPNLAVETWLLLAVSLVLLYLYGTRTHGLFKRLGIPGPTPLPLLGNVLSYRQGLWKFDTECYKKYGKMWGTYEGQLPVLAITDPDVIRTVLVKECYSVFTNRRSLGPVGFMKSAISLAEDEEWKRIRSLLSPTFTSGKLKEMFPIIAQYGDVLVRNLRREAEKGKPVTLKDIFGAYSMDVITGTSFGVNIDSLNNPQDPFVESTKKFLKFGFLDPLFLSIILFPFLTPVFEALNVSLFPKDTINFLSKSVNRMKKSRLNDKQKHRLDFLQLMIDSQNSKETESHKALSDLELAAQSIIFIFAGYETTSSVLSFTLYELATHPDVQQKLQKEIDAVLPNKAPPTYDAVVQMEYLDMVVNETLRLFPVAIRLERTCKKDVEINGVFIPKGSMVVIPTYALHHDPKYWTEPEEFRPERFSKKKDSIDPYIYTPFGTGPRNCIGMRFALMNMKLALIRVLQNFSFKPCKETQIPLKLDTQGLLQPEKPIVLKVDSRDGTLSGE
Sequence of recombinant human CYP2D6 (P10635 whole entry): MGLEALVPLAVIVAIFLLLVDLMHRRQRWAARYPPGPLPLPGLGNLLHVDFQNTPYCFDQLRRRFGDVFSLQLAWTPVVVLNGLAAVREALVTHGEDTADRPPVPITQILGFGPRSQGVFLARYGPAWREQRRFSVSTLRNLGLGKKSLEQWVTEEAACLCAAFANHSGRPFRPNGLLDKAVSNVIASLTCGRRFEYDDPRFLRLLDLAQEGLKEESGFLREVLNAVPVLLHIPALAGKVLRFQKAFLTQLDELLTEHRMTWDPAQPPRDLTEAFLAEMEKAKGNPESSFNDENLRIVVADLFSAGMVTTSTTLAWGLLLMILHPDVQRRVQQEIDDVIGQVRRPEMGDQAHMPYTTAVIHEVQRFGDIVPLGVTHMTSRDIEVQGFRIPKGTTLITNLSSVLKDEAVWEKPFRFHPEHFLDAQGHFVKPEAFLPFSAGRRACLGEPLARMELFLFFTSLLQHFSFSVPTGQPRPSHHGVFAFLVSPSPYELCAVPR
Sequence of recombinant human CYP3A4 (P08684 whole entry): as the sequence (P08684 whole entry) above
Sequence of recombinant human CYP2C19 (P33261 whole entry): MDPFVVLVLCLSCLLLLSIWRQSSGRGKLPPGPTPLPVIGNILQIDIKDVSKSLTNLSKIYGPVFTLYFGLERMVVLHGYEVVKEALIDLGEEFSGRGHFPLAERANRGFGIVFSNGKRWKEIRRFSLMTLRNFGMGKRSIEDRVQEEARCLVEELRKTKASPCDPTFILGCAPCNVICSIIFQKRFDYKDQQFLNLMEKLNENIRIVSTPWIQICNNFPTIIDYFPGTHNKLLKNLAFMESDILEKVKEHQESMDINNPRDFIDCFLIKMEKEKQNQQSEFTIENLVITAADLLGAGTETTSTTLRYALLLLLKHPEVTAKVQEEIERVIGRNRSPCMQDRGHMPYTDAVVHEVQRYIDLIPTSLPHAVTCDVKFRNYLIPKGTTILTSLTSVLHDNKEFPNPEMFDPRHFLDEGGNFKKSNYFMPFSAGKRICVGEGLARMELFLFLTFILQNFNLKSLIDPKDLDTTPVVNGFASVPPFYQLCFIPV

[M2] [2]: 6.15 nM and 6.3 nM and 4.1 nM
[M2] [3]: 12.05 nM and 12.7 nM and 9.9 nM
metabolite peak by UV detection [4]: greater than 1%
M2 average ([5]; 60min, cytosol 0 mg/mL): 12.95 and 12.75 and 12.25
M2 average ([5]; 60min, cytosol 4 mg/mL): 10.25 and 10.45 and 11.2
M2 average ([5]; 60min, cytosol 10 mg/mL): 7.45 and 7.9 and 8.9
[M2] ([5]; 1 h (Fig. 2e)): 9.4 nM and 16.7 nM and 13.4 nM
[M2] ([5]; 60min, cytosol 0 mg/mL, single measurements (Suppl. Fig. 1)): 13.1 and 12.8 and 12.6 and 12.9 and 11.7
[M2] ([6]; 5 min (Fig. 2a, 6cii)): 1.4 nM and 2.2 nM and 2.25 nM
[M2] ([6]; 10 min (Fig. 2a, 6cii)): 2.85 nM and 3.9 nM and 4.1 nM
[M2] ([6]; 20 min (Fig. 2a, 6cii)): 6.15 nM and 6.85 nM and 7.4 nM
[M2] ([6]; 40 min (Fig. 2a, 6cii)): 12.1 nM and 12.5 nM and 13.35 nM
[M2] ([6]; 60 min (Fig. 2a, 6cii)): 15.75 nM and 16.75 nM and 16.5 nM
[M2] ([7]; 0 min (Fig. 6cii)): 0.25 nM and 0.2 nM
[M2] ([7]; 5 min (Fig. 6cii)): 1.7 nM and 2.55 nM and 1.8 nM
[M2] ([7]; 10 min (Fig. 6cii)): 3.5 nM and 5.15 nM and 3.8 nM
[M2] ([7]; 20 min (Fig. 6cii)): 6.7 nM and 10.4 nM and 7.3 nM
[M2] ([7]; 40 min (Fig. 6cii)): 11.35 nM and 17.1 nM and 12.4 nM
[M2] ([7]; 60 min (Fig. 6cii)): 15.15 nM and 22.05 nM and 17 nM
SMILES: C[C@@H](c1ccc2nccn2c1)n1nnc2ncc(-c3cn[nH]c3)nc21 [Compound M2]
metabolite, share of the dose ([1]; N-demethylation to M2): 60 % of the dose
[M2] ([5]; 60min, cytosol 4 mg/mL, single measurements (Suppl. Fig. 1)): 10.4 and 10.1 and 10.6 and 10.3 and 10.9 and 11.5
[M2] ([5]; 60min, cytosol 10 mg/mL, single measurements (Suppl. Fig. 1)): 7.5 and 7.4 and 8 and 7.8 and 8.5 and 9.3

SMILES: C[C@@H](c1ccc2nccn2c1)n1nnc2ncc(-c3cnn(C)c3)nc21 [Savolitinib]
free in normal plasma [8]: 29%
Papp at 2 h, 10 µM [9]: 53.7 ×10⁻⁶ cm/s
oxidation by aldehyde oxidase, share of the dose [1]: 19 % of the dose
oxidation/hydrolysis on the imidazopyridine moiety, share of the dose [1]: 16 % of the dose
Percentage savolitinib remaining [10]: 1.366% and 5.612% and 4.281%
microsomal CLint at 1 µM ([11]; human liver microsomes + NADPH, pH 7.4): 9.8 µL/min/mg
CLint scaled at 1 µM ([11]; human liver microsomes, Fig. 4a,d): 9.9 mL/min/kg
fu_ratHH [12]: 0.847
fraction unbound at 4 h, 1 µM [13]: 0.847
% contribution ([14]; CYP2A6, inter-system extrapolation factors): 0.2%
CLint ([14]; CYP2A6, only one experiment measurable): 0.0148 µL/min/pmol CYP
CLint ([15]; CYP3A4, average of three): 0.489 ± 0.0278 µL/min/pmol CYP
% contribution ([15]; CYP3A4, inter-system extrapolation factors): 83%
CLint ([16]; CYP2D6, average of three): 0.309 ± 0.0010 µL/min/pmol CYP
% contribution ([16]; CYP2D6, inter-system extrapolation factors): 1.8%
% contribution ([17]; CYP3A5, inter-system extrapolation factors): 12%
CLint ([17]; CYP3A5, only two experiments measurable): 0.0939 µL/min/pmol CYP
% contribution ([18]; CYP1A2, inter-system extrapolation factors): 1.6%
CLint ([18]; CYP1A2, only two experiments measurable): 0.0386 µL/min/pmol CYP
% contribution [19]: 1.9%
fu_HLM [20]: 0.935
fraction unbound at 4 h, 1 µM ([20]; human, human liver microsomes, pH 7.4): 0.935
free savolitinib [21]: 17%
logD [22]: 1.81
microsomal CLint at 1 µM ([23]; human liver microsomes + NADH): 1.6 µL/min/mg
CLint scaled at 1 µM ([23]; human liver microsomes): 1.62 mL/min/kg
hepatocyte CLint at 1 µM [24]: 1 µL/min/1e6 cells
CLint scaled at 1 µM [24]: 2.98 mL/min/kg
turnover (metabolite formation or disappearance of parent) [25]: no detectable turnover

Papp at 2 h, 10 µM [9]: 60.7 ×10⁻⁶ cm/s
CLint scaled at 1 µM ([11]; microsomes): 4.16 mL/min/kg
fu_ratHH [12]: 0.791
fu_HLM [20]: 1
logD [26]: 0.902
CLint scaled at 1 µM ([23]; microsomes): 2.83 mL/min/kg
hepatocyte CLint at 1 µM [24]: 2.69 µL/min/1e6 cells
CLint scaled at 1 µM [24]: 8.57 mL/min/kg
SMILES: CC(=O)CC(c1ccccc1)c1c(O)c2ccccc2oc1=O (centres unmarked) [Warfarin]
